From patent US20180325861A1, “NOVEL CANNABINOID FORMULATIONS” (priority 2015, published 2018)
Read-outs that look alike come from different tables or passages of the source. Marks after values point to notes of the source that are not given here.

What was measured:
[1] = Combinatory PNL formulations with cyclosporine (2.2.1); assay type: physicochemical; settings: for dissolution in the cyclosporine formulation: 50 and 100 mg added to cyclosporine solution, visual, after refrigeration
Experimental: The mixtures were examined visually for complete dissolution, precipitation after 24 hours at refrigeration and for particle size when added to water.
The particle size of the formulations, when added to water, was above 100 nm, compared to the original formulation, as determined by transmission UV at 550 nm turbidity test.
Extensive testing and adjustments were required to design a formulation that could fit two or more agents in a single formulation.

[2] = Experimental: Formulations prepared by mixing the dry solid powder of the tested compound in either the blank formulation to form 5% w/v or in a formulation already containing 5% w/w CBD. Particle size was determined by particle size analyzer.
[3] = Preliminary screening for maximum CBD loading; assay type: physicochemical

| SMILES | dissolution in the cyclosporine formulation [1] | PDI ([2]; 3 hr after dissolution) | Particle size ([2]; 3 hr after dissolution) [nm] | Visual ([2]; 3 hr after dissolution) | PDI ([2]; after 13 days in 4 C) | Particle size ([2]; after 13 days in 4 C) [nm] | Visual ([2]; after 13 days in 4 C) | appearance in the cyclosporine solution ([1]; CBD at 50 mg) | maximum CBD load allowing formation of clear solution [3] | Solubility in PNL with 5% CBD [2] |
| --- | --- | --- | --- | --- | --- | --- | --- | --- | --- | --- |
| C[C@@H]1[C@H](O)[C@@H](C)/C=C/C=C/C=C/C=C/C=C/C=C/C=C/[C@H](O[C@@H]2O[C@H](C)[C@@H](O)[C@H](N)[C@@H]2O)C[C@@H]2O[C@](O)(C[C@@H](O)C[C@@H](O)[C@H](O)CC[C@@H](O)C[C@@H](O)CC(=O)O[C@H]1C)C[C@H](O)[C@H]2C(=O)O [Amphitericin B] | did not fully dissolve | – | – | – | – | – | – | – | – | – |
| CCOC(=O)c1ccc(N)cc1 [Benzocaine] | – | 0.449 | 62.22 | clear | 0.479 | 65.82 | clear | – | – | – |
| C=C(C)[C@@H]1CCC(C)=C[C@H]1c1c(O)cc(CCCCC)cc1O [CBD, Cannabidiol] | – | – | – | – | – | – | – | clear solution | 10-12.5% | – |
| O=C(N[C@H](CO)[C@H](O)c1ccc([N+](=O)[O-])cc1)C(Cl)Cl [Chloramphenicol] | – | 0.118 | 30.03 | clear | 0.172 | 29.64 | clear | – | – | – |
| CC(C)CCC[C@@H](C)[C@H]1CC[C@H]2[C@@H]3CC=C4C[C@@H](O)CC[C@]4(C)[C@H]3CC[C@]12C [Cholesterol] | – | 0.487** | 96.43 | turbid | 0.516 | 86.94 | turbid | – | – | – |
| CC(C)Cc1ccc(C(C)C(=O)O)cc1 (centres unmarked) [Ibuprofen] | – | 0.398 | 74.28 | clear | 0.367 | 67.86 | clear | – | – | – |
| CC(=O)O[C@H]1C(=O)[C@@]2(C)[C@H]([C@H](OC(=O)c3ccccc3)[C@]3(O)C[C@H](OC(=O)[C@H](O)[C@@H](NC(=O)c4ccccc4)c4ccccc4)C(C)=C1C3(C)C)[C@]1(OC(C)=O)CO[C@@H]1C[C@@H]2O [Paclitxel] | did not fully dissolve | – | ~50 | clear | – | – | precipitate | – | – | ~ |
